Test results reported in patent publication US20240368209A1, “GEMCITABINE ANTICANCER DERIVATIVE AND ANTICANCER PHARMACEUTICAL USE” (ASCENTAWITS PHARMACEUTICALS, LTD., priority 2021, published 2024).
pIC50: −log10 of the molar value. Read-outs that look alike come from different tables or passages of the source.

Legend:
[1] = system: H460 cell line with high expression of AKR1C3 enzyme; conditions: cited from earlier work
[2] = intraperitoneal injection, once every 3 days, for four consecutive doses; literature; cited from earlier work
H460 cancer cells = assay: Inhibition of H460 cancer cells in the presence or absence of AKR1C3 inhibitor AST-3021 (section 2.1); assay type: cell-based, human; conditions: for pIC50: Homo sapiens
Description: The experimental scheme was as follows: • 1) H460 cell suspension was added to a 96-well plate with 100 μL per well at a cell density of 2000/well. • 2) Cells were incubated in an incubator of 37° C., 5% CO2 overnight. • 3) Compound treatment
Combined administration: 24 hours after cell plating, 98 μL of growth medium per well was added. 1 μL of AST-3021 was added to each well (final concentration 3 μM), and the plate was shaken gently to ensure even mixing, and then placed into an incubator; after 2 hours, 1 μL of the test compound at different concentrations was added, and the plate was shaken gently to ensure even mixing, and then placed into an incubator of 37° C., 5% CO2.
Administration of the drug alone: 24 hours after cell plating, 99 μL of growth medium per well was added.
In order to further verify that the compound was activated specifically by human AKR1C3 (aldosterone reductase family 1 member C3), the compound was added following the pretreatment of cells with the specific AKR1C3 enzyme inhibitor AST-3021 (3 μM), and the effect of the presence of AST-3021 on the proliferation of H460 cancer cells was tested
IC50 data of inhibitory effect of the compounds gemcitabine and H11 on H460 cancer cells in the presence or absence of the AKR1C3 inhibitor AST-3021 is shown in Table 2 and Table 3.

[3] = system: HuPrime pancreatic cancer xenograft model PA1222; assay: In vivo pharmacodynamic experiment in HuPrime pancreatic cancer PA1222 PDX model; conditions: for Tumor volume (mm^3) (x ± S): Group 2, 80 mg/kg i.p.
[4] = Plasma stability in rat plasma; conditions: for Remaining percentage (%): rat plasma
Description: 1 mM working solution of the test compound was prepared in DMSO. 1 mM working solution of propantheline was prepared in acetonitrile. 1 mM working solution of lovastatin (mevinolin) was prepared in DMSO. Propantheline was used as a positive control for human, monkey, dog, and mouse plasma stability tests. Lovastatin was a positive control for rat plasma stability test.
• A. 398 μL of plasma per well was added to the culture plate, and the plate was preheated at 37° C. for 15 minutes. • B. After preincubation, 2 μL of working solution (test solution or control solution) was added to the 398 μL plasma mentioned above, resulting in a final concentration of 5 μM. The final concentration of organic solvents was 0.5%. The test was conducted in duplicate. • C. The reaction sample was incubated at 37° C. • D. 50 μL was extracted from the reaction sample at 0, 15, 30, 60, and 120 minutes, respectively. […] 100 μL of supernatant was taken and transferred to a new plate. The supernatant was diluted with ultrapure water according to the LC-MS signal response and peak shape.
Samples were analyzed with LC-MS/MS. All calculations were conducted using Microsoft Excel. The peak area ratio was determined from the extracted ion chromatogram. • (1) The percentage of the remaining compound at each time point was calculated with the following formula: […]
wherein the slope value k was determined by linear regression of the natural logarithm of the remaining percentage of the parent drug vs. incubation time curve.

[5] = Group 2, 80 mg/kg i.p. Q3D×4, Day 32

SMILES: CCN(CCCCBr)P(=O)(OCc1ccc([N+](=O)[O-])c(Oc2ccc(-c3ccccc3)cc2)c1)OCC1OC(n2ccc(N)nc2=O)C(F)(F)C1O (stereo not drawn) [TH3057]
- pIC50 ([1]; with addition of AKR1C3 enzyme inhibitor): 5.30
- pIC50 ([1]; without AKR1C3 enzyme inhibitor): 6.70

SMILES: Nc1ccn([C@@H]2O[C@H](CO)[C@@H](O)C2(F)F)c(=O)n1 [gemcitabine]
- MTD [2]: 120 mg/kg
- Specific activation ratio (H460 cancer cells; H460): 1.08
- pIC50 (H460 cancer cells; NCI-H460, 72 h, H460, 72 hours, read-out: IC50 (nmol/L) AST-3021 not added): 7.88
- pIC50 (H460 cancer cells; NCI-H460, H460, AST-3021 3 μM, read-out: IC50 (nmol/L) AST-3021 added): 7.85
- Relative tumor volume (x ± S) [3, 5]: 0.06 ± 0.04
- T/C (%) [3, 5]: 0.97%
- TGI (%) [3, 5]: 99.03%
- complete tumor inhibition rate [3, 5]: 60%
- Tumor volume (x ± S) ([3]; Group 2, 80 mg/kg i.p. Q3D×4, Day 32, mean ± standard error): 6.79 ± 4.33
- Tumor volume (mm^3) (x ± S) ([3]; day 0): 102.95 mm^3
- Tumor volume (mm^3) (x ± S) ([3]; day 4): 104.07 mm^3
- Tumor volume (mm^3) (x ± S) ([3]; day 7): 74.43 mm^3
- Tumor volume (mm^3) (x ± S) ([3]; day 11): 38.92 mm^3
- Tumor volume (mm^3) (x ± S) ([3]; day 14): 24.66 mm^3
- Tumor volume (mm^3) (x ± S) ([3]; day 18): 17.66 mm^3
- Tumor volume (mm^3) (x ± S) ([3]; day 21): 12.13 mm^3
- Tumor volume (mm^3) (x ± S) ([3]; day 25): 10.23 mm^3
- Tumor volume (mm^3) (x ± S) ([3]; day 28): 7.97 mm^3
- Tumor volume (mm^3) (x ± S) ([3]; day 32): 6.79 mm^3

SMILES: CC[C@H](C)C(=O)O[C@H]1C[C@@H](C)C=C2C=C[C@H](C)[C@H](CC[C@@H]3C[C@@H](O)CC(=O)O3)[C@H]21 [lovastatin, reference compound]
- Remaining percentage (%) ([4]; 0 min, 5 μM, 37° C.): 100.00%
- Remaining percentage (%) ([4]; 15 min): 5.27%
- Remaining percentage (%) ([4]; 30 min): 0.52%
- Remaining percentage (%) ([4]; 60 min): 0.45%
- Remaining percentage (%) ([4]; 120 min): 0.34%
- t1/2 ([4]; rat, plasma): 3.53 min
